Consider 27 molecules from the Deep4Chem optical property database.

The data set can be described thus: solvent given as SMILES.
The mark [1] stands for this setting: in O=P(c1ccccc1)(c1ccccc1)c1ccccc1Oc1ccccc1P(=O)(c1ccccc1)c1ccccc1.

With `CCCCCCOc1ccc(C#Cc2ccc(-c3ccc(-c4ccc(C#Cc5ccc(OCCCCCC)c(OCCCCCC)c5)s4)c4nsnc34)s2)cc1OCCCCCC`, the emission maximum worked out at 600 nm (in C1CCCCC1); 635 nm (in CCOC(C)=O); 666 nm (in CN(C)C=O); 636 nm (in COc1ccccc1); 620 nm (in Cc1ccccc1); 648 nm (in ClC(Cl)Cl). For the same molecule, the emission maximum by setting is: (in ClCCCl) 650 nm; (in ClCCl) 649 nm.

Take `CCOC(=O)/C=C/C1=[N+]2C(=C(c3c(C)cc(C)cc3C)c3ccc(/C=C/C(=O)OCC)n3[B-]2(F)F)C=C1`: the emission maximum (in ClCCl) turned out to be 602 nm.

Turning to `CC(=O)O[B-]1(OC(C)=O)OC(/C=C/c2cccc3ccccc23)=CC(/C=C/c2cccc3ccccc23)=[O+]1`, the emission maximum was 539 nm (in C1CCOC1); 569 nm (in CC#N); 553 nm (in CC(C)=O); 574 nm (in CS(C)=O); 529 nm (in Cc1ccccc1); 551 nm (in ClC(Cl)Cl). Besides, the emission maximum (in ClCCl) stood at 554 nm.

On to `CCCCN1/C(=C\c2c(-c3ccc(N(C)C)cc3)c(=O)c2=O)C=Cc2ccccc21`, for which the emission maximum was 428 nm (in C1CCCCC1), 435 nm (in Cc1ccccc1) and 585 nm (in ClCCl).

For the molecule `O=c1c2ccccc2c2c3c(cccc13)c(-c1ccccc1)c1c3cccc4cccc(c43)c12`, the emission maximum reads like this: (in CC#N) 519 nm; (in CO) 562 nm.

Consider `CCOC(=O)c1cc(C(=O)NCc2ccccc2)c2ccc(N(C)C)cc2n1`, for which the emission maximum (in CCO) came to 586 nm.

Regarding `C(C#Cc1ccc2ccc3cccc4ccc1c2c34)#Cc1cccc2ccccc12`, the emission maximum runs as follows: (in C1CCCCC1) 411 nm; (in CC#N) 420 nm; (in CO) 414 nm; (in ClCCl) 420 nm.

The molecule `Cc1ccccc1C1CC(=O)Oc2c1c1nc3ccccc3nc1c1ccccc21` (stereo not given) came in with an emission maximum (in ClC(Cl)Cl) of 434 nm.

Take `N[C@@H](Cc1ccc(O)cc1)C(=O)O`: the emission maximum (in O) amounted to 300 nm.

For `Cc1cc(=O)oc2cc3c4ccccc4c4ccccc4c3cc12`, the emission maximum is recorded as 410 nm (in C1CCOC1); 419 nm (in CC#N); 420 nm (in CO); 418 nm (in CS(C)=O); 410 nm (in Cc1ccccc1); 415 nm (in ClC(Cl)Cl).

For the molecule `O=C1c2ccccc2C2=Cc3ccccc3B(O)N12`, the emission maximum is, setting by setting: (in CC#N) 432 nm; (in CO) 430 nm; (in CS(C)=O) 438 nm; (in ClC(Cl)Cl) 437 nm.

On to `c1ccc(C2c3ccccc3-c3cc4c(cc32)-c2ccccc2C4c2ccccc2)cc1` (stereo not given), for which, under “in ClCCl”, the emission maximum stood at 360 nm.

`CCCCn1c2ccccc2c2ccc3c4cc(-c5ccc(OC)cc5)ccc4n(CCCC)c3c21`: the emission maximum (in ClC(Cl)Cl) turned out to be 409 nm.

The molecule `N#Cc1nc(N(Cc2ccc(Br)cc2)Cc2ccc(Br)cc2)c(C#N)nc1N(Cc1ccc(Br)cc1)Cc1ccc(Br)cc1` came in with an emission maximum (in ClC(Cl)Cl) of 575 nm.

With `C(=C\c1cc(/C=C/c2ccc(N(c3ccccc3)c3ccccc3)cc2)nc(/C=C/c2ccc(N(c3ccccc3)c3ccccc3)cc2)n1)/c1ccc(N(c2ccccc2)c2ccccc2)cc1`, the emission maximum (in C1CCOC1) was 514 nm; the emission maximum (in CC#N) stood at 589 nm; the emission maximum (in CC(C)=O) is given as 555 nm; the emission maximum (in CCCCCCC) amounted to 460 nm; the emission maximum (in CS(C)=O) amounted to 586 nm; the emission maximum (in Cc1ccccc1) is on record as 479 nm. This molecule also displayed an emission maximum (in ClCCl) of 544 nm.

For `CCOC(=O)CCCCCn1c2ccccc2c(=O)c2cc3c(cc21)c(=O)c1ccccc1n3CC`, the emission maximum (in CO) came to 550 nm.

`Cc1cc(C)c(B2c3cc(C(C)(C)C)ccc3-c3cc4ccccc4c4cc(C(C)(C)C)cc2c34)c(C)c1` yielded an emission maximum (in C1CCCCC1) of 420 nm.

With `Cc1cc(-c2ccc(-n3c4ccccc4c4ccccc43)cc2)nc(-c2ccc(-n3c4ccccc4c4ccccc43)cc2)n1`, the emission maximum was determined as 423 nm (in C1CCOC1), 461 nm (in CN(C)C=O), 398 nm (in Cc1ccccc1) and 426 nm (in ClC(Cl)Cl).

Take `CC1=[N+]2C(=C(c3ccc(C#N)cc3)c3ccc(C)n3[B-]2(F)F)C=C1`: the emission maximum reads like this: (in C1CCCCC1) 539 nm; (in C1CCOC1) 540 nm; (in CC#N) 537 nm; (in CCOC(C)=O) 537 nm; (in CO) 538 nm; (in Cc1ccccc1) 543 nm. The same molecule gave an emission maximum (in ClC(Cl)Cl) of 543 nm.

In the case of `COc1cc2c(cc1F)c(=O)c1cc(F)c(OC)cc1n2C(C)C`, for the setting “in CCO”, the emission maximum is recorded as 425 nm.

Regarding `Nc1cccc2c1C(=O)c1ccccc1-2`, the emission maximum reads like this: (in C1CCCCC1) 471 nm; (in CC#N) 501 nm; (in CCO) 521 nm; (in c1ccccc1) 482 nm.

Regarding `Cc1cc(C)c(B(c2c(C)cc(C)cc2C)c2c(C)cc(-n3c4ccc(N(c5ccccc5)c5ccccc5)cc4c4cc(N(c5ccccc5)c5ccccc5)ccc43)cc2C)c(C)c1`, the emission maximum by setting is: (in Cc1ccccc1) 495 nm; under setting [1], 487 nm.

`CCCCCCOc1cc(/C=C/c2cc(OCCCCCC)c(/C=C/c3cc(OCCCCCC)c(C=C4C(=O)c5ccccc5C4=O)cc3OCCCCCC)cc2OCCCCCC)c(OCCCCCC)cc1C=C1C(=O)c2ccccc2C1=O` yielded an emission maximum (in ClCCl) of 662 nm.

`CC(C)(C)c1ccc2c(c1)c1cc(C(C)(C)C)ccc1n2-c1ccc(S(=O)(=O)c2ccc(-n3c4ccc(C(C)(C)C)cc4c4cc(C(C)(C)C)ccc43)cc2)cc1`: the emission maximum is 404 nm (in Cc1ccccc1) and 423 nm under setting [1].

For the molecule `CCC(C)[Si](C#Cc1c2nc3c4ccccc4c(=O)c4ccccc4c3nc2c(C#C[Si](C(C)CC)(C(C)CC)C(C)CC)c2nc3c4ccccc4c(=O)c4ccccc4c3nc12)(C(C)CC)C(C)CC` (stereo not given), the emission maximum (in ClCCl) was 571 nm.

Take `Fc1c(F)c(F)c([B-]2(c3c(F)c(F)c(F)c(F)c3F)Oc3c(ccc4c5c(ccc34)C=[N+](c3ccccc3)[B-](c3c(F)c(F)c(F)c(F)c3F)(c3c(F)c(F)c(F)c(F)c3F)O5)C=[N+]2c2ccccc2)c(F)c1F`: the emission maximum is, setting by setting: (in C1CCOC1) 578 nm; (in CC#N) 577 nm; (in CC(C)=O) 578 nm; (in Cc1ccccc1) 580 nm; (in ClCCl) 580 nm.

In the case of `Cc1cc2c3ccccc3oc2c2c1c1ccccc1n2-c1ccc(C#N)cc1`, the emission maximum is, setting by setting: (in CCOC(C)=O) 379 nm; (in CS(C)=O) 440 nm; (in ClCCl) 420 nm.
